Experimental data: PubChem BioAssay (NCI)
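The compound was tested at five concentrations on cells cultured in 96-well plates, with a 48-hour exposure period. TGI marks complete inhibition of growth.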

Legend:
Assay in all cases: inhibition of tumour cell growth, NCI panel, 48 h
HCC-2998 colon = test system: HCC-2998 colon
HL-60(TB) leukemia = test system: HL-60(TB) leukemia
U251 CNS = test system: U251 CNS
HT29 colon = test system: HT29 colon
786-0 renal = test system: 786-0 renal
RPMI-8226 leukemia = test system: RPMI-8226 leukemia
HS 578T breast = test system: HS 578T breast
NCI-H460 lung = test system: NCI-H460 lung
NCI-H226 lung = test system: NCI-H226 lung
SK-MEL-28 melanoma = test system: SK-MEL-28 melanoma
NCI-H522 lung = test system: NCI-H522 lung
OVCAR-5 ovarian = test system: OVCAR-5 ovarian
HOP-62 NSCLC = test system: HOP-62 NSCLC
A549 NSCLC = test system: A549 NSCLC
SF-295 CNS = test system: SF-295 CNS
UACC-257 melanoma = test system: UACC-257 melanoma
HCT-116 colon = test system: HCT-116 colon
SNB-75 CNS = test system: SNB-75 CNS
A498 renal = test system: A498 renal
ACHN renal = test system: ACHN renal
SK-MEL-2 melanoma = test system: SK-MEL-2 melanoma
KM12 colon = test system: KM12 colon
SW-620 colon = test system: SW-620 colon
PC-3 prostate = test system: PC-3 prostate
OVCAR-3 ovarian = test system: OVCAR-3 ovarian
SK-MEL-5 melanoma = test system: SK-MEL-5 melanoma
MOLT-4 leukemia = test system: MOLT-4 leukemia
K-562 leukemia = test system: K-562 leukemia
NCI-H23 lung = test system: NCI-H23 lung
SF-268 CNS = test system: SF-268 CNS
SN12C renal = test system: SN12C renal
SR leukemia = test system: SR leukemia
EKVX NSCLC = test system: EKVX NSCLC
OVCAR-8 ovarian = test system: OVCAR-8 ovarian
HCT-15 colon = test system: HCT-15 colon
MCF7 breast = test system: MCF7 breast
CCRF-CEM leukemia = test system: CCRF-CEM leukemia
SF-539 CNS = test system: SF-539 CNS
MALME-3M melanoma = test system: MALME-3M melanoma
COLO 205 colon = test system: COLO 205 colon
UO-31 renal = test system: UO-31 renal
DU-145 prostate = test system: DU-145 prostate
MDA-MB-435 = test system: MDA-MB-435
MDA-MB-231 breast = test system: MDA-MB-231 breast
OVCAR-4 ovarian = test system: OVCAR-4 ovarian
SNB-19 CNS = test system: SNB-19 CNS
NCI/ADR-RES ovarian = test system: NCI/ADR-RES ovarian
M14 melanoma = test system: M14 melanoma
T-47D breast = test system: T-47D breast
TK-10 renal = test system: TK-10 renal
HOP-92 NSCLC = test system: HOP-92 NSCLC
UACC-62 melanoma = test system: UACC-62 melanoma
IGROV1 ovarian = test system: IGROV1 ovarian
RXF 393 renal = test system: RXF 393 renal

Cc1ncc([N+](=O)[O-])n1CC(O)Cn1cnc([N+](=O)[O-])n1 (stereo not drawn)
TGI (HCC-2998 colon): > 100 µM
TGI (HL-60(TB) leukemia): > 100 µM
TGI (U251 CNS): > 100 µM
TGI (HT29 colon): > 100 µM
TGI (786-0 renal): > 100 µM
TGI (RPMI-8226 leukemia): > 100 µM
TGI (HS 578T breast): > 100 µM
TGI (NCI-H460 lung): > 100 µM
TGI (NCI-H226 lung): > 100 µM
TGI (SK-MEL-28 melanoma): > 100 µM
TGI (NCI-H522 lung): > 100 µM
TGI (OVCAR-5 ovarian): > 100 µM
TGI (HOP-62 NSCLC): > 100 µM
TGI (A549 NSCLC): > 100 µM
TGI (SF-295 CNS): > 100 µM
TGI (UACC-257 melanoma): > 100 µM
TGI (HCT-116 colon): > 100 µM
TGI (SNB-75 CNS): > 100 µM
TGI (A498 renal): > 100 µM
TGI (ACHN renal): > 100 µM
TGI (SK-MEL-2 melanoma): > 100 µM
TGI (KM12 colon): > 100 µM
TGI (SW-620 colon): > 100 µM
TGI (PC-3 prostate): > 100 µM
TGI (OVCAR-3 ovarian): > 100 µM
TGI (SK-MEL-5 melanoma): > 100 µM
TGI (MOLT-4 leukemia): > 100 µM
TGI (K-562 leukemia): > 100 µM
TGI (NCI-H23 lung): > 100 µM
TGI (SF-268 CNS): > 100 µM
TGI (SN12C renal): > 100 µM
TGI (SR leukemia): > 100 µM
TGI (EKVX NSCLC): > 100 µM
TGI (OVCAR-8 ovarian): > 100 µM
TGI (HCT-15 colon): > 100 µM
TGI (MCF7 breast): > 100 µM
TGI (CCRF-CEM leukemia): > 100 µM
TGI (SF-539 CNS): > 100 µM
TGI (MALME-3M melanoma): > 100 µM

CC(=O)CCC(=O)CC(O)(C(F)(F)F)C(F)(F)F
TGI (HCC-2998 colon): 33.6 µM
TGI (HL-60(TB) leukemia): 38.1 µM
TGI (U251 CNS): 33.2 µM
TGI (HT29 colon): 34.7 µM
TGI (786-0 renal): 30.2 µM
TGI (RPMI-8226 leukemia): 49.8 µM
TGI (HS 578T breast): 38.5 µM
TGI (COLO 205 colon): 34.4 µM
TGI (NCI-H460 lung): 38.6 µM
TGI (UO-31 renal): 27.8 µM
TGI (NCI-H226 lung): 24.7 µM
TGI (SK-MEL-28 melanoma): 39.6 µM
TGI (OVCAR-5 ovarian): 29.9 µM
TGI (DU-145 prostate): 37.8 µM
TGI (HOP-62 NSCLC): 33.6 µM
TGI (A549 NSCLC): 41.9 µM
TGI (MDA-MB-435): 34.6 µM
TGI (SF-295 CNS): 27.1 µM
TGI (MDA-MB-231 breast): 35 µM
TGI (UACC-257 melanoma): 33.7 µM
TGI (HCT-116 colon): 31.3 µM
TGI (SNB-75 CNS): 65.2 µM
TGI (A498 renal): 17.6 µM
TGI (OVCAR-4 ovarian): 37 µM
TGI (SNB-19 CNS): 30 µM
TGI (NCI/ADR-RES ovarian): 58.7 µM
TGI (ACHN renal): 42.6 µM
TGI (M14 melanoma): 34.9 µM
TGI (T-47D breast): 40 µM
TGI (KM12 colon): 31.1 µM
TGI (SW-620 colon): 42.8 µM
TGI (TK-10 renal): 44.1 µM
TGI (HOP-92 NSCLC): 26.7 µM
TGI (UACC-62 melanoma): 32 µM
TGI (SK-MEL-5 melanoma): 33.2 µM
TGI (MOLT-4 leukemia): 36.6 µM
TGI (K-562 leukemia): 33.4 µM
TGI (NCI-H23 lung): 43.2 µM
TGI (IGROV1 ovarian): 31.1 µM
TGI (SF-268 CNS): 44.6 µM
TGI (RXF 393 renal): 34.5 µM
TGI (SN12C renal): 36.5 µM
TGI (SR leukemia): 32 µM
TGI (OVCAR-8 ovarian): 37.9 µM
TGI (HCT-15 colon): 35.4 µM
TGI (MCF7 breast): 37.1 µM
TGI (CCRF-CEM leukemia): 51 µM
TGI (SF-539 CNS): 31.9 µM
TGI (MALME-3M melanoma): 32.9 µM
